Data on 4 compounds can be found in the supplement of paper PMC4932681.

In assay [1] the test system is BT-474 Tam1. Nature of the assay: drug sensitivity score (DSS) (DSS (dimensionless)); higher = more sensitive; extreme values may be limits of the assay. The following applies: 4-OH-tamoxifen in medium 1 µM; 72 h. The method, then:
(§1)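 FIMM FO2B library drugs were tested at 5 concentrations (10,000-fold range) for 72 h, with CellTiter-Glo viability normalised to DMSO and benzethonium chloride controls. The Drug Sensitivity Score (DSS) is computed from the fitted logistic dose-response curve (area-based; 0 = inactive). Resistant lines and the 'in 1µM tamoxifen' arms were tested in 1 µM 4-OH-tamoxifen.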

Assay [2] relates to BT-474. Described as above. The settings on record: 72 h. The method, then: as §1
In assay [3] the test system is ZR-75-1. The description is as above. The following applies: 72 h. The method, then: as §1
The subject of assay [4] is T-47D. Described as above. The settings on record: 72 h. The method, then: as §1
Assay [5] relates to ZR-75-1 Tam1. Described as above. The settings on record: 4-OH-tamoxifen in medium 1 µM; 72 h. The procedure:
as §1

The subject of assay [6] is BT-474 Tam2. The assay is described as above. The settings on record: 4-OH-tamoxifen in medium 1 µM; 72 h. The procedure:
as §1

Assay [7] relates to T-47D Tam1. Described as above. The following applies: 4-OH-tamoxifen in medium 1 µM; 72 h. The procedure: as §1
For assay [8], the system named is T-47D Tam2. The description is as above. The following applies: 4-OH-tamoxifen in medium 1 µM; 72 h. The method, then: as §1
Assay [9] relates to MCF-7. The assay is described as above. The following applies: 72 h. The method, then: as §1
Assay [10] deals with MCF-7 Tam1. The assay is described as above. The settings on record: 4-OH-tamoxifen in medium 1 µM; 72 h. The procedure:
as §1

Assay [11] has as its system ZR-75-1 Tam2. The description is as above. The following applies: 4-OH-tamoxifen in medium 1 µM; 72 h. The method, then:
as §1

Assay [12] concerns BT-474 Tam1. Nature of the assay: relative IC50 (midpoint of fitted logistic curve, plateau may be below 50% inhibition; CellTiter-Glo viability); higher = less potent. The following applies: 4-OH-tamoxifen in medium 1 µM; 72 h. The method, then:
(§2)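 FIMM FO2B library drugs were plated at 5 concentrations spanning a 10,000-fold range in 384-well plates. Cells were incubated for 72 h at 37 °C and viability was read by CellTiter-Glo, normalised to DMSO (0% inhibition) and 100 µM benzethonium chloride (100% inhibition). IC50 values come from logistic dose-response fits (Breeze pipeline). Tamoxifen-resistant lines and the 'in 1µM tamoxifen' parental arms were tested in medium with 1 µM 4-OH-tamoxifen.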

Assay [13] has as its system BT-474. The assay is described as above. The settings on record: 72 h. The method, then:
as §2

Assay [14] relates to ZR-75-1. The description is as above. The settings on record: 72 h. The procedure:
as §2

Assay [15] deals with T-47D. The assay is described as above. The following applies: 72 h. The procedure:
as §2

Assay [16] relates to ZR-75-1 Tam1. The description is as above. The settings on record: 4-OH-tamoxifen in medium 1 µM; 72 h. The method, then: as §2
The subject of assay [17] is BT-474 Tam2. The description is as above. The following applies: 4-OH-tamoxifen in medium 1 µM; 72 h. The procedure:
as §2

Assay [18] has as its system MCF-7. The description is as above. The following applies: 72 h. The procedure: as §2
Assay [19] relates to ZR-75-1 Tam2. The description is as above. The settings on record: 4-OH-tamoxifen in medium 1 µM; 72 h. The procedure:
as §2

The test system of assay [20] is T-47D Tam1. Described as above. The settings on record: 4-OH-tamoxifen in medium 1 µM; 72 h. The method, then: as §2

Bounds are passed on as bounds.

As to `CC(=O)Nc1cccc(-n2c(=O)n(C3CC3)c(=O)c3c(Nc4ccc(I)cc4F)n(C)c(=O)c(C)c32)c1`, the drug sensitivity score in assay [1] is 0; in [2] (4-OH-tamoxifen in medium 0 µM), 0; in assay [2] (4-OH-tamoxifen in medium 1 µM) it was 0.246; in [3] (4-OH-tamoxifen in medium 0 µM) it was 0; in assay [3] (4-OH-tamoxifen in medium 1 µM), 0; in assay [4] (4-OH-tamoxifen in medium 0 µM), 0. The drug sensitivity score in [4] (4-OH-tamoxifen in medium 1 µM) is 0.259; in [5] it was 0; in assay [6], 0; in [7] it was 2.19; in [8], 2.69; in [9] (4-OH-tamoxifen in medium 0 µM), 0. The results for the drug sensitivity score in assay [9] (4-OH-tamoxifen in medium 1 µM), in assay [10] and in assay [11] were 3.01, 0.101 and 0, respectively. The “relative IC50” value in [12], in assay [13] (4-OH-tamoxifen in medium 0 µM), in assay [14] (4-OH-tamoxifen in medium 0 µM), in assay [14] (4-OH-tamoxifen in medium 1 µM), in assay [15] (4-OH-tamoxifen in medium 0 µM) and in assay [15] (4-OH-tamoxifen in medium 1 µM) was more than 0.25 µM in each case. For the same compound, the “relative IC50” value in [16], in assay [17], in assay [18] (4-OH-tamoxifen in medium 0 µM) and in [19] was more than 0.25 µM each time.
In the case of `CO[C@@H]1[C@H](N(C)C(=O)c2ccccc2)C[C@H]2O[C@]1(C)n1c3ccccc3c3c4c(c5c6ccccc6n2c5c31)C(=O)NC4` [Midostaurin (PKC412)], the drug sensitivity score worked out at 0.189 in assay [1]; 3.45 in [2] (4-OH-tamoxifen in medium 0 µM); 7.09 in assay [2] (4-OH-tamoxifen in medium 1 µM); 0 in assay [3] (4-OH-tamoxifen in medium 0 µM); 0 in assay [3] (4-OH-tamoxifen in medium 1 µM); 1.37 in assay [4] (4-OH-tamoxifen in medium 0 µM). Also, the drug sensitivity score is 3.14 in [4] (4-OH-tamoxifen in medium 1 µM); 0 in assay [5]; 1.88 in assay [6]; 3.03 in assay [7]; 1.85 in [8]; 0.329 in assay [9] (4-OH-tamoxifen in medium 0 µM). Besides, the values for the drug sensitivity score in [9] (4-OH-tamoxifen in medium 1 µM), in assay [10] and in assay [11] were 0.519, 1.28 and 0, respectively. Further, the “relative IC50” value in assay [13] (4-OH-tamoxifen in medium 1 µM) is 0.305 µM; in assay [14] (4-OH-tamoxifen in medium 0 µM), more than 10 µM; in [14] (4-OH-tamoxifen in medium 1 µM), more than 10 µM; in [15] (4-OH-tamoxifen in medium 1 µM), 1.81 µM; in assay [16] it was more than 10 µM; in assay [20] it was 1.49 µM. In assay [19], the “relative IC50” value is more than 10 µM.
For `Cn1cnc2c(F)c(Nc3ccc(Br)cc3Cl)c(C(=O)NOCCO)cc21` [Selumetinib  (AZD6244)], the drug sensitivity score in [1] was 0.393; in assay [2] (4-OH-tamoxifen in medium 0 µM), 0; in assay [2] (4-OH-tamoxifen in medium 1 µM) it was 2.57; in [3] (4-OH-tamoxifen in medium 0 µM), 0; in [3] (4-OH-tamoxifen in medium 1 µM) it was 0; in assay [4] (4-OH-tamoxifen in medium 0 µM), 0. Further, the drug sensitivity score in assay [4] (4-OH-tamoxifen in medium 1 µM) stood at 0; in assay [5], 0; in assay [6], 0; in [7], 8.55; in assay [8], 0.0086; in assay [9] (4-OH-tamoxifen in medium 0 µM) it was 0.0626. The values for the drug sensitivity score in assay [9] (4-OH-tamoxifen in medium 1 µM), in assay [10] and in [11] were 1.86, 0.168 and 0, respectively. Also, the “relative IC50” value in assay [13] (4-OH-tamoxifen in medium 0 µM), in assay [14] (4-OH-tamoxifen in medium 0 µM), in assay [14] (4-OH-tamoxifen in medium 1 µM), in assay [15] (4-OH-tamoxifen in medium 0 µM), in [15] (4-OH-tamoxifen in medium 1 µM) and in [16] was more than 10 µM in each case. Further, the “relative IC50” value in assay [17] is more than 10 µM; in assay [20] it was 0.975 µM; in assay [19] it was more than 10 µM.
Regarding `CNC(=O)c1cc(Oc2ccc(NC(=O)Nc3ccc(Cl)c(C(F)(F)F)c3)c(F)c2)ccn1` [Regorafenib (BAY 73-4506)], the drug sensitivity score worked out at 4.57 in assay [1]; 1.48 in assay [2] (4-OH-tamoxifen in medium 0 µM); 3.22 in assay [2] (4-OH-tamoxifen in medium 1 µM); 0.232 in assay [3] (4-OH-tamoxifen in medium 0 µM); 0.299 in assay [3] (4-OH-tamoxifen in medium 1 µM); 1.1 in [4] (4-OH-tamoxifen in medium 0 µM). The drug sensitivity score is 0.365 in assay [4] (4-OH-tamoxifen in medium 1 µM); 0.695 in assay [5]; 5.3 in [6]; 9.09 in [7]; 0.22 in assay [8]; 2.49 in [9] (4-OH-tamoxifen in medium 0 µM). Further, the values for the drug sensitivity score in assay [9] (4-OH-tamoxifen in medium 1 µM), in assay [10] and in assay [11] were 1.46, 0 and 2.33, respectively. The “relative IC50” value in assay [12] was determined as 3.61 µM; in assay [13] (4-OH-tamoxifen in medium 0 µM), 3.83 µM; in [13] (4-OH-tamoxifen in medium 1 µM) it was 3.94 µM; in [17], 2.43 µM; in [20], 0.37 µM; in assay [18] (4-OH-tamoxifen in medium 0 µM), 3.54 µM. In addition, the “relative IC50” value in [18] (4-OH-tamoxifen in medium 1 µM) stood at 3.34 µM; in assay [19], 1.94 µM.
